# Test: Chemical stability in aqueous buffer solution
# Assay type: physicochemical
# Details: pH 2, 37° C., time after which 10% of the original compound has decomposed
# Experimental: The chemical stability of the compounds of the invention has been followed kinetically at low concentration at 37° C. in aqueous buffer solution at different pH values. The results in Table 3 show the half life (t 1/2) at pH 7, that is the time period after which half the amount of the original compound remains unchanged, and t10 % at pH 2, that is the time period after which 10% of the original compound has decomposed.
row,Compound,"Chemical Stability at pH 2, t 10% [h]"
1,"COc1ccnc(C[S+]([O-])c2nc3cc(Cl)ccc3n2COC(=O)OCc2ccccc2)c1OC (stereo not shown) [Example 1, 5-chloro-2-[[(3,4-dimethoxy-2-pyridinyl)methyl]sulfinyl]-1H-benzimidazole-1-ylmethyl benzyl carbonate]",14
2,"COc1ccnc(C[S+]([O-])c2nc3ccc(Cl)cc3n2COC(=O)OCc2ccccc2)c1OC (stereo not shown) [Example 2, 6-chloro-2-[[(3,4-dimethoxy-2-pyridinyl)methyl]sulfinyl]-1H-benzimidazole-1-ylmethyl benzyl carbonate]",27
3,"CCCCOC(=O)OCn1c([S+]([O-])Cc2nccc(OC)c2OC)nc2cc(Cl)ccc21 (stereo not shown) [Example 3, 5-chloro-2-[[(3,4-dimethoxy-2-pyridinyl)methyl]sulfinyl]-1H-benzimidazole-1-ylmethyl butyl carbonate]",21
4,"CCCCOC(=O)OCn1c([S+]([O-])Cc2nccc(OC)c2OC)nc2ccc(Cl)cc21 (stereo not shown) [Example 4, 6-chloro-2[[(3,4-dimethoxy-2pyridinyl)methyl]sulfinyl]-1H-benzimidazole-1-ylmethyl butyl carbonate]",42
